Test results: patent US7045547B2, “Acyl-CoA dehydrogenase allenic inhibitors” (University of Delaware, priority 2002, dated 2006)
Where two headings read alike, the source gives them in different places. Blank lines part the entries; values can stand above or below the compound they belong to.

Columns and labels:
[1] = target: T1, medium chain dehydrogenase (Sus scrofa, UniProt P41367); experiment: Competition studies with the substrate octanoyl-CoA; type: biochemical, pig; set-up: medium-chain acyl-CoA dehydrogenase (MC-CoA DH) as purified from pig kidney; from tissue; host or cells: pig kidney; conditions: 30 μM octanoyl-CoA, 3 nM dehydrogenase
T1 sequence (P41367 26-421): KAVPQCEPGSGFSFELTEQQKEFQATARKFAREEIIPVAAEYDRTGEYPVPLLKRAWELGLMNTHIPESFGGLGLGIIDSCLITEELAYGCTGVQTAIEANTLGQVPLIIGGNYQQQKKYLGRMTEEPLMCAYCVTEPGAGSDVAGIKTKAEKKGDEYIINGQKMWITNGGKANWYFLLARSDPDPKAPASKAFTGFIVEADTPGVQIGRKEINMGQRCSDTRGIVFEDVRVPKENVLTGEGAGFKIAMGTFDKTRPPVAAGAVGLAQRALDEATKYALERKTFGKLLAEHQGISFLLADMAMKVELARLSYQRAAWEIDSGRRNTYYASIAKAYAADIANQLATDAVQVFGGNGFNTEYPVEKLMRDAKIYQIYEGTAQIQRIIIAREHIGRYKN
Protocol: (§1) General Information: Medium chain acyl-CoA dehydrogenase was purified from pig kidney as described previously (33). Porcine liver esterase (EC 3.1.1.1), CoASH (lithium salt), D-pantethine, and 5,5′-dithio-bis(2-nitrobenzoic acid) were obtained from Sigma. E,E-2,4-octadienal and E,E-2,4-dodecadienal were from Alfa and K & K Laboratories respectively. […] Thorpe et al. in Biochemistry 1979, 18, 331–337. Unless otherwise stated, buffers were 50 mM potassium phosphate, pH 7.6, containing 0.3 mM EDTA, and experiments were conducted at 25° C. Assays of the medium chain dehydrogenase were as described previously, see C. Thorpe et al. in Anal. Biochem. 1990, 186, 280–284. Static and rapid-reaction spectrophotometry were performed as reported in C. Thorpe et al, in Biochemistry 1998, 37, 10469–10477.
In competition studies with the substrate octanoyl-CoA, at a concentration of 30 μM, both the CoA and pantetheine analogs of the compounds of the invention are shown to be relatively strong reversible inhibitors of medium chain dehydrogenase. The assay studies included a dehydrogenase concentration of 3 nM. Compared to a control without inhibitor, 4.4 nM of the 3,4-decadienoyl-CoA analog decreased the rate to 50% within 1 minute.

[2] = target: T2, medium-chain acyl-CoA dehydrogenase (MC-CoA DH) (Sus scrofa, UniProt P41367); experiment: Kinetic stability of enzyme adducts (return of oxidized flavin absorbance at 446 nm); type: biochemical, pig; conditions: for rate constant of enzyme adduct decomposition: 1.6 equivalents racemic 3,4-dienoyl-CoA (0.8 equivalent R-isomer), 9.5 μM enzyme, pH 7.6; for enzyme adduct stability relative to the corresponding full length CoA-thioester: times more stable than the CoA adduct
T2 construct: medium-chain acyl-CoA dehydrogenase (MC-CoA DH) as purified from pig kidney; from tissue; host or cells: pig kidney
T2 sequence (P41367 26-421): T1 sequence (P41367 26-421)
Excerpt: The reduced flavin adduct decomposes to the 2,4-conjugated diene with the return of the oxidized flavin absorbance spectrum. This isomerization provides a measure of the kinetic stability of each of the enzyme adducts formed. The dehydrogenase enzyme used in the stability testing of the inventive compounds was medium-chain acyl-CoA dehydrogenase (MC-CoA DH) as purified from pig kidney.
as §1
A solution of acyl-CoA dehydrogenase (9.5 μM in 50 mM phosphate buffer, pH 7.6, 25° C.) is mixed with 1.6 equivalents of racemic 3,4-dienoyl-CoA derivatives (0.8 equivalent of R-isomer) containing 5, 6, 7, 8, 10, 12 and 15 carbon acyl chains. The return of oxidized flavin absorbance was monitored at 446 nm. A sub-stoichiometric amount (1.6 equivalents racemate: corresponding to 0.8 equivalent of the R-isomer) is used to avoid the lag phases encountered in the presence of excess inhibitor. The return of oxidized flavin absorbance is strongly chain length dependent.
Enzyme adduct stabilities with the medium-chain acyl-CoA dehydrogenase of R-(−)-3,4-decadienoyl-CoA, R-(−)-3,4-decadienoyl-pantetheine, and R-(−)-3,4-decadienoyl N-acetylcysteamine were compared. The dehydrogenase was incubated with 0.8 equivalents of the CoA, pantetheine and N-acetylcysteamine thioesters of R-(−)-3,4-decadienoic acid until maximal bleaching of the flavin chromophore was observed. The reappearance of the oxidized flavin chromophore was then followed at 25° C.

[3] = target: T1, medium chain dehydrogenase; conditions: absence of displacing ligand; cited from earlier work
[4] = target: T3, medium chain acyl-CoA dehydrogenase (Sus scrofa, UniProt P41367); experiment: Spectral titration / inhibition of the dehydrogenase by allenic thioesters; type: biochemical, pig
T3 construct: medium-chain acyl-CoA dehydrogenase (MC-CoA DH) as purified from pig kidney; from tissue; host or cells: pig kidney
T3 sequence (P41367 26-421): T1 sequence (P41367 26-421)
Excerpt: See, Example 1. The (S)-enantiomer is rapidly isomerized to the trans-2,4-conjugated diene. […] These structural studies show a surprising, but relatively large, variation in the interaction between structurally similar inhibitors.
as §1
The spectral changes were completed rapidly before measurement could be made. Intermediate spectra are omitted for clarity. […] In FIG. 1C, the enzyme (5.06 μM in 50 mM phosphate buffer, pH 7.6, 25° C.; curve 1) was titrated with 2.53, 5.06, 36.4, 66.8, 109.3 μM of S-(+)-decadienoyl-CoA (curves 2–6, respectively). Intermediate spectra are omitted for clarity. The absorbance values at 446 nm are shown in the inset.

[5] = target: T3, medium chain acyl-CoA dehydrogenase; experiment: Enzyme adduct formation: bleaching of the flavin chromophore at 446 nm (stopped-flow / conventional spectrophotometry); type: biochemical, pig; conditions: for limiting rate of flavin bleaching / rate constant of bleaching of the flavin chromophore at 446 nm: 2° C.; for rate constant of bleaching of the flavin chromophore at 446 nm: at 50 μM; for long wavelength band: compared with the CoA compound, pantetheine at 50 μM
Protocol: as §1
(§2) Bleaching of the flavin chromophore, followed at 446 nm, is relatively rapid for the pantetheine compound, but slow enough for a conventional spectrophotometer with the N-acetylcysteamine compound. At 50 μM, the rate constants are 30.9 s^−1, 7.5 s^−1, and 0.035 s^−1 for the CoA, pantetheine, N-acetylcysteamine compounds, respectively at 2° C. Limiting rates of 33 s^−1 and 55 s^−1 are obtained for CoA and pantetheine thioesters, respectively.
Dehydrogenase and R-(−)3,4-decadienoyl-CoA are mixed in the stopped-flow spectrophotometer at 2° C. to give final concentrations of 11 μM and 60 μM. The absorbance changes at 446 and 800 nm are shown in the inset of FIG. 2. As is observed with a number of diverse thioester substrates, such as butyryl-, octanoyl- and dihydrocinnamoyl-CoA, bleaching of the flavin at 446 nm is biphasic.
The absorbance changes were recorded in a 2 cm path-length cell after mixing dehydrogenase and R-(−)-thioester in the stopped flow spectrophotometer to give final concentrations of 5.5 and 30 μM respectively in 50 mM phosphate buffer, pH 7.6 at 2° C. […] Absorbance traces at a range of wavelengths were used to construct the spectrum of the intermediate species maximal at about 20 msec.

[6] = Solubility observation during rate measurements; type: physicochemical
Protocol: as §2

Compound: 3,4-decadienoyl pantetheine [3,4-decadienoyl-pantetheine]
- IC50 ([1]; read-out: concentration required to decrease the rate to 50% of control): 500 nM

Compound: CCCCCCCC=C=CCC(=O)SCCNC(=O)CCNC(=O)[C@H](O)C(C)(C)COP(=O)(O)OP(=O)(O)OC[C@H]1O[C@@H](n2cnc3c(N)ncnc32)[C@H](O)[C@@H]1OP(=O)(O)O (racemic) [3,4-dodecadienoyl-CoA]
- rate constant of enzyme adduct decomposition ([2]; 25° C.): 0.18 h⁻¹

Compound: CCC=C=CCC(=O)SCCNC(=O)CCNC(=O)[C@H](O)C(C)(C)COP(=O)(O)OP(=O)(O)OC[C@H]1O[C@@H](n2cnc3c(N)ncnc32)[C@H](O)[C@@H]1OP(=O)(O)O (racemic) [3,4-heptadienoyl-CoA]
- rate constant of enzyme adduct decomposition ([2]; 25° C.): 1.9 h⁻¹

Compound: CCCC=C=CCC(=O)SCCNC(=O)CCNC(=O)[C@H](O)C(C)(C)COP(=O)(O)OP(=O)(O)OC[C@H]1O[C@@H](n2cnc3c(N)ncnc32)[C@H](O)[C@@H]1OP(=O)(O)O [(R)-3,4-octadienoyl-CoA]
- inhibition of the dehydrogenase [4]: potent inhibitor

Compound: CCCCCC=C=CCC(=O)SCCNC(=O)CCNC(=O)[C@H](O)C(C)(C)CO [R-(−)-3,4-decadienoyl-pantetheine]
- limiting rate of flavin bleaching [5]: 55 s⁻¹
- rate constant of bleaching of the flavin chromophore at 446 nm [5]: 7.5 s⁻¹
- long wavelength band [5]: one quarter as intense
- enzyme adduct stability relative to the corresponding full length CoA-thioester [2]: ~9 times
- enzyme adduct stability relative to the corresponding full length CoA-thioester ([2]; listed as (R)-3,4-decadienoyl-pantetheine): 10 times

Compound: CCCCCC=C=CCC(=O)SCCNC(=O)CCNC(=O)[C@H](O)C(C)(C)COP(=O)(O)OP(=O)(O)OC[C@H]1O[C@@H](n2cnc3c(N)ncnc32)[C@H](O)[C@@H]1OP(=O)(O)O [S-(+)-3,4-decadienoyl-CoA]
- inhibition of the dehydrogenase [4]: relatively weak inhibitor
- flavin adduct formation ([4]; spectral titration): does not form a detectable flavin adduct

More lines, main results first:

- rate constant of enzyme adduct decomposition ([2]; 25° C.): 8.7 h⁻¹
Compound: CC=C=CCC(=O)SCCNC(=O)CCNC(=O)[C@H](O)C(C)(C)COP(=O)(O)OP(=O)(O)OC[C@H]1O[C@@H](n2cnc3c(N)ncnc32)[C@H](O)[C@@H]1OP(=O)(O)O (racemic) [3,4-hexadienoyl-CoA]

- rate constant of enzyme adduct decomposition ([2]; 25° C.): 0.08 h⁻¹
Compound: CCCC=C=CCC(=O)SCCNC(=O)CCNC(=O)[C@H](O)C(C)(C)COP(=O)(O)OP(=O)(O)OC[C@H]1O[C@@H](n2cnc3c(N)ncnc32)[C@H](O)[C@@H]1OP(=O)(O)O (racemic) [3,4-octadienoyl-CoA]

- rate constant of enzyme adduct decomposition ([2]; 25° C.): 0.27 h⁻¹
Compound: CCCCCCCCCCC=C=CCC(=O)SCCNC(=O)CCNC(=O)[C@H](O)C(C)(C)COP(=O)(O)OP(=O)(O)OC[C@H]1O[C@@H](n2cnc3c(N)ncnc32)[C@H](O)[C@@H]1OP(=O)(O)O (racemic) [3,4-pentadecanedienoyl-CoA]

- rate constant of enzyme adduct decomposition ([2]; 25° C.): 1.6 h⁻¹
Compound: C=C=CCC(=O)SCCNC(=O)CCNC(=O)[C@H](O)C(C)(C)COP(=O)(O)OP(=O)(O)OC[C@H]1O[C@@H](n2cnc3c(N)ncnc32)[C@H](O)[C@@H]1OP(=O)(O)O [3,4-pentadienoyl-CoA, reference compound]
- half-life of reduced flavin adduct [3]: about 75 min

- inhibition of the dehydrogenase [4]: very little, if any, inhibition
Compound: CCCC=C=CCC(=O)SCCNC(=O)CCNC(=O)[C@H](O)C(C)(C)COP(=O)(O)OP(=O)(O)OC[C@H]1O[C@@H](n2cnc3c(N)ncnc32)[C@H](O)[C@@H]1OP(=O)(O)O [(S)-3,4-octadienoyl-CoA]

- limiting rate of flavin bleaching [5]: 33 s⁻¹
- rate constant of bleaching of the flavin chromophore at 446 nm [5]: 30.9 s⁻¹
- stoichiometry of bleaching at 446 nm ([4]; 9.6 μM enzyme, pH 7.6, 25° C., FIG. 1B inset): 0.95 equivalents
Compound: CCCCCC=C=CCC(=O)SCCNC(=O)CCNC(=O)[C@H](O)C(C)(C)COP(=O)(O)OP(=O)(O)OC[C@H]1O[C@@H](n2cnc3c(N)ncnc32)[C@H](O)[C@@H]1OP(=O)(O)O [R-(−)-3,4-decadienoyl-CoA]

- solubility [6]: low solubility
- rate constant of bleaching of the flavin chromophore at 446 nm [5]: 0.035 s⁻¹
- long wavelength band [5]: no long-wavelength band was observed
- enzyme adduct stability relative to the corresponding full length CoA-thioester [2]: greater than 100 times
Compound: CCCCCC=C=CCC(=O)SCCNC(C)=O [R-(−)-3,4-decadienoyl-N-acetylcysteamine]
- regain of flavin absorbance (adduct stability in words) ([2]; 0.8 equivalents, 25° C.): no appreciable regain of the flavin absorbance after two days

- rate constant of enzyme adduct decomposition ([2]; 25° C.): 0.12 h⁻¹
- IC50 ([1]; within 1 minute, read-out: concentration that decreased the rate to 50% of control): 4.4 nM
Compound: decadienoyl-CoA
